# Data: patent US20110123510A1, “Methods of Affecting Biological Function Through Circadian Clock Feedback Cycle by NAMPT-Mediated NAD+ Biosynthesis” (WASHINGTON UNIVERSITY, priority 2009, published 2011)
# Key:
# [1] = tested on: CLOCK:BMAL1-driven transcription of Per2:luciferase; test: Per2:luciferase transcriptional reporter assay in HEK293 cells; assay type: cell-based
# Description: Luciferase Assays. HEK293 and HepG2 cells were transiently transfected with Clock (100 ng), Bmal1 (100 ng), firefly luciferase reporter (100 ng), and renilla luciferase reporter (control for transfection efficiency) (4 ng) using Lipofectamine 2000. Increasing doses of Sirt1 (200-800 ng), resveratrol (20, 50, 100 uM), nicotinamide (1, 5, 10 mM), Ex-527 (0.1 or 1.0 uM), or FK866 (10 nM) were added as indicated. 48 hrs following transfection, cells were lysed and luciferase activity monitored using the Dual-Luciferase® Reporter Assay System (Promega). Firefly luciferase values were normalized to renilla luciferase values, and a minimum of 3 independent experiments was performed in triplicate for each assay.
# [2] = tested on: SIRT1 target genes; test: mRNA expression of SIRT1 target genes in primary hepatocytes (quantitative real-time PCR); assay type: cell-based, mice; conditions: 200 nM FK866 for 24 hours (FIG. 2B)
# Description: (§1) Quantitative Real-Time PCR. Total RNA was extracted from frozen tissue with Tri Reagent (Molecular Research Center, Inc.). cDNA was synthesized using the High Capacity cDNA Reverse Transcription kit (Applied Biosystems). Real-time PCR was performed and analyzed using an Applied Biosystems 7900HT Fast Real-Time PCR System (Applied Biosystems). PCR conditions were: 10 min at 95° C., then 35 cycles of 10 s at 95° C., 15 s at 60° C. Relative expression levels (normalized to Gapdh) were determined using the comparative CT method.
# (§2) Primary Hepatocyte Isolation and Adenoviral Infection.
# [3] = tested on: Per2 RNA oscillation; test: Per2 RNA oscillation in primary hepatocytes following serum shock; assay type: cell-based, mice; conditions: primary hepatocytes after serum shock, 200 nM FK866 added at t=2 (FIG. 3B); vehicle 2.2 day
# Description: as §1, §2
# Synchronization of Primary Hepatocytes by Serum Shock. Hepatocytes were synchronized by changing to media containing 50% horse serum (t=0) for 2 hrs and then maintaining cells in media containing 0.5% FBS (A. Balsalobre, F. Damiola, U. Schibler, Cell 93, 929 (1998)). For FK866 application, 200 nM FK866 was added to the culture at t=2. RNA samples were collected at the indicated time points, and the expression of clock genes was examined by quantitative real-time PCR as described above. Damping rate was assessed as the decay rate of the oscillations of averaged Per2 RNA abundance assuming exponential decay.
# [4] = tested on: NAMPT-mediated NAD+ biosynthesis; conditions: primary hepatocytes, 200 nM FK866 for 24 hours (FIG. 2A)
# Description: NAD^+Measurements. NAD^+ levels were measured using HPLC with Waters 515 pumps and a 2487 detector with a Supelco LC-18-T column (15 cm×4.6 cm). Briefly, frozen liver tissues or cultured cells were extracted in 1M perchloric acid and neutralized in 3M K2CO3 on ice. After centrifugation, the supernatant was mixed with Buffer A (50 mM K2PO4/KHPO4, pH 7.0) and loaded on to the column. The HPLC was run at a flow rate of 1 ml/min with 100% Buffer A from 0-5 min, a linear gradient to 95% Buffer N5% Buffer B (100% methanol) from 5-6 min, 95% Buffer N5% Buffer B from 6-11 min, a linear gradient to 85% Buffer N15% Buffer B from 11-13 min, 85% Buffer A/15% Buffer B from 13-23 min, and a linear gradient to 100% Buffer A from 23-24 min. NAD^+ eluted as a sharp peak at 15 min and was quantitated based on the peak area compared to a standard curve and normalized to tissue weight of frozen liver tissues or to protein content of cultured cells.
smiles,measurement,setting,value
NC(=O)C1CCCc2c1[nH]c1ccc(Cl)cc21 (stereo not drawn) [EX-527],Per2:luciferase transcription,[1]; Ex-527 0.1 and 1.0 uM (FIG. 6C),showed a similar trend
O=C(/C=C/c1cccnc1)NCCCCC1CCN(C(=O)c2ccccc2)CC1 [FK866],reduction in mRNA expression level of G6 Pase,[2],~30%
same,reduction in mRNA expression level of Pepck,[2],~30%
same,CLOCK:BMAL1-driven transcription of the Per2:luciferase reporter,"[1]; HEK293 cells, 10 nM FK866 for 24 or 48 hours (FIG. 2C)",significant increase
same,SIRT1-dependent suppression of CLOCK:BMAL1-mediated transcription,[1]; Sirt1 (800 ng) and 10 nM FK866 for 48 hours (FIG. 2E),abrogated
same,damping rate of Per2 oscillation,[3],5.3 days
same,NAD+ biosynthesis (NAD+ levels),[4],significantly inhibited
"NC(=O)c1cccnc1 [nicotinamide, 3-pyridinecarboxamide]",Per2:luciferase transcription,"[1]; increasing doses of nicotinamide 1, 5 and 10 mM (FIG. 6B)",activated
Oc1ccc(C=Cc2cc(O)cc(O)c2)cc1 [resveratrol],Per2:luciferase transcription,"[1]; increasing doses of resveratrol 20, 50 and 100 uM (FIG. 6A)",inhibited
